Data: US8178522B2, “Thiazoles” (Hoffmann-La Roche Inc., priority 2009, dated 2012)

biological target: T1, GABA A α5 (α5β3γ2) (Homo sapiens, UniProt P18507+P31644); assay: [3H]flumazenil competition binding, human GABA A α5 receptor; details: human receptor α5β3γ2 transiently transfected in HEK293 cells; competition for [3H]flumazenil 0.5 nM; 1 hour at 4° C.; means of two determinations; read-out: hKi GABA A α5
T1 construct: expressed in transfected cells; host or cells: HEK293, transiently transfected; membrane preparation
In short: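 Competition with [3H]flumazenil at membranes from HEK293 cells transiently expressing human α5β3γ2, in Krebs-tris buffer pH 7.5. Equilibrium 1 hour at 4° C, filtration with ice-cold 50 mM Tris wash, scintillation counting. Ki values are means of two determinations.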

Row | SMILES | Ki [nM]
1 | CCCCc1noc(C)c1/C=C/c1nc(C)c(C(=O)O)s1 [Example 99, 2-[(E)-2-(3-Butyl-5-methyl-isoxazol-4-yl)-vinyl]-4-methyl-thiazole-5-carboxylic acid] | 27.6
2 | CCCCc1noc(C)c1/C=C\c1nc(C)c(C(=O)NCCO)s1 [Example 101, 2-[(Z)-2-(3-Butyl-5-methyl-isoxazol-4-yl)-vinyl]-4-methyl-thiazole-5-carboxylic acid (2-hydroxy-ethyl)-amide] | 28.8
3 | CCCCc1noc(C)c1/C=C/c1nc(C)c(C(=O)N[C@H](CC)CO)s1 [Example 105, 2-[(E)-2-(3-Butyl-5-methyl-isoxazol-4-yl)-vinyl]-4-methyl-thiazole-5-carboxylic acid ((R)-1-hydroxymethyl-propyl)-amide] | 7.9
4 | CCCCc1noc(C)c1/C=C/c1nc(C)c(C(=O)N2CC(F)(F)C2)s1 [Example 108, {2-[(E)-2-(3-Butyl-5-methyl-isoxazol-4-yl)-vinyl]-4-methyl-thiazol-5-yl}-(3,3-difluoro-azetidin-1-yl)-methanone] | 24.5
5 | CCCCc1noc(C)c1/C=C/c1nc(C)c(C(=O)N2CC(OC)C2)s1 [Example 109, {2-[(E)-2-(3-Butyl-5-methyl-isoxazol-4-yl)-vinyl]-4-methyl-thiazol-5-yl}-(3-methoxy-azetidin-1-yl)-methanone] | 33.2
6 | CCCCc1noc(C)c1/C=C/c1nc(C)c(C(=O)N2CCC2)s1 [Example 110, Azetidin-1-yl-{2-[(E)-2-(3-butyl-5-methyl-isoxazol-4-yl)-vinyl]-4-methyl-thiazol-5-yl}-methanone] | 30.8
7 | CCCCc1noc(C)c1/C=C/c1nc(C)c(C(=O)N[C@H]2CCC[C@@H]2O)s1 [Example 111, 2-[(E)-2-(3-Butyl-5-methyl-isoxazol-4-yl)-vinyl]-4-methyl-thiazole-5-carboxylic acid ((1S,2S)-2-hydroxy-cyclopentyl)-amide] | 5.5
8 | CCCCc1noc(C)c1/C=C/c1nc(C)c(C(=O)NC2CC2)s1 [Example 113, 2-[(E)-2-(3-Butyl-5-methyl-isoxazol-4-yl)-vinyl]-4-methyl-thiazole-5-carboxylic acid cyclopropylamide] | 5.1
9 | CCCCc1noc(C)c1/C=C/c1nc(C)c(C(=O)NC2CCC2)s1 [Example 115, 2-[(E)-2-(3-Butyl-5-methyl-isoxazol-4-yl)-vinyl]-4-methyl-thiazole-5-carboxylic acid cyclobutylamide] | 4.7
10 | CCCCc1noc(C)c1/C=C/c1nc(C)c(C(=O)NCC2CC2)s1 [Example 116, 2-[(E)-2-(3-Butyl-5-methyl-isoxazol-4-yl)-vinyl]-4-methyl-thiazole-5-carboxylic acid cyclopropylmethyl-amide] | 4.4
11 | CCCCc1noc(C)c1/C=C/c1nc(C)c(C(=O)NC(C)(C)CO)s1 [Example 117, 2-[(E)-2-(3-Butyl-5-methyl-isoxazol-4-yl)-vinyl]-4-methyl-thiazole-5-carboxylic acid (2-hydroxy-1,1-dimethyl-ethyl)-amide] | 21
12 | CCCCc1noc(C)c1/C=C/c1nc(C)c(C(=O)N2CCOCC2)s1 [Example 120, {2-[(E)-2-(3-Butyl-5-methyl-isoxazol-4-yl)-vinyl]-4-methyl-thiazol-5-yl}-morpholin-4-yl-methanone] | 57.8
13 | CCCCc1noc(C)c1/C=C/c1nc(C)c(C(=O)NCC)s1 [Example 121, 2-[(E)-2-(3-Butyl-5-methyl-isoxazol-4-yl)-vinyl]-4-methyl-thiazole-5-carboxylic acid ethylamide] | 5
14 | CCCCc1noc(C)c1/C=C/c1nc(C)c(C(=O)NC)s1 [Example 122, 2-[(E)-2-(3-Butyl-5-methyl-isoxazol-4-yl)-vinyl]-4-methyl-thiazole-5-carboxylic acid methylamide] | 5.7
15 | CCCCc1noc(C)c1/C=C/c1ncc(C(=O)NC(C)C)s1 [Example 124, 2-[(E)-2-(3-Butyl-5-methyl-isoxazol-4-yl)-vinyl]-thiazole-5-carboxylic acid isoprop-ylamide] | 5.5
16 | CCCCc1noc(C)c1/C=C/c1ncc(C(=O)NCCO)s1 [Example 125, 2-[(E)-2-(3-Butyl-5-methyl-isoxazol-4-yl)-vinyl]-thiazole-5-carboxylic acid (2-hydroxy-ethyl)-amide] | 6.6
17 | CCOC(=O)c1cnc(OCc2c(-c3ccccc3)noc2C)s1 [Example 126, 2-(5-Methyl-3-phenyl-isoxazol-4-ylmethoxy)-thiazole-5-carboxylic acid ethyl ester] | 16.8
18 | Cc1onc(-c2ccccc2)c1COc1ncc(C(=O)NCCO)s1 [Example 130, 2-(5-Methyl-3-phenyl-isoxazol-4-ylmethoxy)-thiazole-5-carboxylic acid (2-hydroxy-ethyl)-amide] | 5.4
19 | Cc1onc(-c2ccccc2)c1COc1ncc(C(=O)NC(C)(C)CO)s1 [Example 131, 2-(5-Methyl-3-phenyl-isoxazol-4-ylmethoxy)-thiazole-5-carboxylic acid (2-hydroxy-1,1-dimethyl-ethyl)-amide] | 12.7
20 | CCCCc1noc(C)c1COc1ncc(C(=O)NC(C)C)s1 [Example 132, 2-(3-Butyl-5-methyl-isoxazol-4-ylmethoxy)-thiazole-5-carboxylic acid isopropylamide] | 10.2

Next, values leading:

Row | Ki [nM] | SMILES
21 | 1.2 | CCCCc1noc(C)c1/C=C/c1nc(C)c(C(=O)NC2CCOC2)s1 (stereo not drawn) [Example 94, 2-[(E)-2-(3-Butyl-5-methyl-isoxazol-4-yl)-vinyl]-4-methyl-thiazole-5-carboxylic acid (tetrahydro-furan-3-yl)-amide]
22 | 2.2 | CCCCc1noc(C)c1/C=C/c1nc(C)c(C(=O)NCCO)s1 [Example 95, 2-[(E)-2-(3-Butyl-5-methyl-isoxazol-4-yl)-vinyl]-4-methyl-thiazole-5-carboxylic acid (2-hydroxy-ethyl)-amide]
23 | 1.5 | CCCCc1noc(C)c1/C=C/c1nc(C)c(C(=O)NC2CCOCC2)s1 [Example 96, 2-[(E)-2-(3-Butyl-5-methyl-isoxazol-4-yl)-vinyl]-4-methyl-thiazole-5-carboxylic acid (tetrahydro-pyran-4-yl)-amide]
24 | 1.9 | CCCCc1noc(C)c1/C=C/c1nc(C)c(C(=O)NC(CO)CO)s1 [Example 98, 2-[(E)-2-(3-Butyl-5-methyl-isoxazol-4-yl)-vinyl]-4-methyl-thiazole-5-carboxylic acid (2-hydroxy-1-hydroxymethyl-ethyl)-amide]
25 | 2 | CCCCc1noc(C)c1/C=C/c1nc(C)c(C(N)=O)s1 [Example 100, 2-[(E)-2-(3-Butyl-5-methyl-isoxazol-4-yl)-vinyl]-4-methyl-thiazole-5-carboxylic acid amide]
26 | 4.4 | CCCCc1noc(C)c1/C=C/c1nc(C)c(C(=O)NN(C)C)s1 [Example 102, 2-[(E)-2-(3-Butyl-5-methyl-isoxazol-4-yl)-vinyl]-4-methyl-thiazole-5-carboxylic acid N′,N′-dimethyl-hydrazide]
27 | 1.8 | CCCCc1noc(C)c1/C=C/c1nc(C)c(C(=O)NN2CCOCC2)s1 [Example 103, 2-[(E)-2-(3-Butyl-5-methyl-isoxazol-4-yl)-vinyl]-4-methyl-thiazole-5-carboxylic acid morpholin-4-ylamide]
28 | 2.1 | CCCCc1noc(C)c1/C=C/c1nc(C)c(C(=O)N[C@@H](CC)CO)s1 [Example 106, 2-[(E)-2-(3-Butyl-5-methyl-isoxazol-4-yl)-vinyl]-4-methyl-thiazole-5-carboxylic acid ((S)-1-hydroxymethyl-propyl)-amide]
29 | 2.6 | CCCCc1noc(C)c1/C=C/c1nc(C)c(C(=O)N[C@H](C)C(F)(F)F)s1 [Example 107, 2-[(E)-2-(3-Butyl-5-methyl-isoxazol-4-yl)-vinyl]-4-methyl-thiazole-5-carboxylic acid ((R)-2,2,2-trifluoro-1-methyl-ethyl)-amide]
30 | 1.3 | CCCCc1noc(C)c1/C=C/c1nc(C)c(C(=O)Nc2cnn(C)c2)s1 [Example 112, 2-[(E)-2-(3-Butyl-5-methyl-isoxazol-4-yl)-vinyl]-4-methyl-thiazole-5-carboxylic acid (1-methyl-1-pyrazol-4-yl)-amide]
31 | 2.5 | CCCCc1noc(C)c1/C=C/c1nc(C)c(C(=O)NC2CCS(=O)(=O)C2)s1 (stereo not drawn) [Example 118, 2-[(E)-2-(3-Butyl-5-methyl-isoxazol-4-yl)-vinyl]-4-methyl-thiazole-5-carboxylic acid (1,1-dioxo-tetrahydrothiophen-3-yl)-amide]
32 | 2.4 | CCCCc1noc(C)c1/C=C/c1nc(C)c(C(=O)NCC(F)(F)F)s1 [Example 119, 2-[(E)-2-(3-Butyl-5-methyl-isoxazol-4-yl)-vinyl]-4-methyl-thiazole-5-carboxylic acid (2,2,2-trifluoro-ethyl)-amide]
33 | 1.1 | CCCCc1noc(C)c1/C=C/c1nc(C)c(C(=O)N2CC3(COC3)C2)s1 [Example 123, {2-[(E)-2-(3-Butyl-5-methyl-isoxazol-4-yl)-vinyl]-4-methyl-thiazol-5-yl}-(2-oxa-6-aza-spiro[3.3]hept-6-yl)-methanone]
34 | 2.2 | Cc1onc(-c2ccccc2)c1COc1ncc(C(=O)NC(C)C)s1 [Example 127, 2-(5-Methyl-3-phenyl-isoxazol-4-ylmethoxy)-thiazole-5-carboxylic acid isoprop-ylamide]
35 | 1.8 | Cc1onc(-c2ccccc2)c1COc1ncc(C(=O)NC2CCOCC2)s1 [Example 128, 2-(5-Methyl-3-phenyl-isoxazol-4-ylmethoxy)-thiazole-5-carboxylic acid (tetrahydro-pyran-4-yl)-amide]
36 | 4.2 | Cc1onc(-c2ccccc2)c1COc1ncc(C(=O)NC(C)CO)s1 (stereo not drawn) [Example 129, 2-(5-Methyl-3-phenyl-isoxazol-4-ylmethoxy)-thiazole-5-carboxylic acid (2-hydroxy-1-methyl-ethyl)-amide]
